The source made the active and inactive calls.
Columns and labels:
[1] = target: Mu-type opioid receptor (Homo sapiens, UniProt P35372); format: functional, cell-based;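 further: U2OS cells with beta-arrestin recruitment to OPRM1 by beta-gal complementation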
[2] = target: 5-hydroxytryptamine receptor 2A (Mus musculus, UniProt P35363); format: functional, cell-based;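 further: CHO-K1 cells with tagged receptor and beta-arrestin; agonist potency measured as compound-induced activation of the receptor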
[3] = target: 72 kDa type IV collagenase (Homo sapiens, UniProt P08253); test: Dose Response validation of uHTS RPN11 inhibitor hits using a MMP-2 Fluorescence assay.; format: functional
[4] = target: Prothrombin (Bos taurus, UniProt P00735); test: thrombin protease inhibitors – biochemical, fluorescence polarization, uHTS hits, dose response (AID 602369); format: functional
[5] = target: 26S proteasome non-ATPase regulatory subunit 14 (Homo sapiens, UniProt O00487); test: inhibition of proteasome subunit RPN11 – biochemical, fluorescence polarization, uHTS hits, confirmation (AID 602368); format: functional
[6] = target: Hepatocyte nuclear factor 4-alpha (Homo sapiens, UniProt P41235); format: functional, cell-based;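 further: biochemical luminescence-based dose-response counterscreen measuring inhibition of HNF4 dimerization, run alongside a screen for blockers of ABHD5–perilipin-5 interaction; split luciferase complementation of HNF4 fusion proteins in cell lysate measuring dimerization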
[7] = viability of HCT116 lacking mutant beta-catenin – cell-based, human colon tumor, dose response (AID 1045); format: functional;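 further: HCT116 colon tumor cells with beta catenin knocked out; cells exposed to compound for 60 hours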
[8] = HEK-293T cell viability reduction – luminescence, B-cell screen hits, cytotoxicity control for BCR NF-kB inhibitor project, dose response (AID 489021); format: functional, cell-based;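 further: HEK-293T cells carrying an NF-kB luciferase reporter; cells exposed to compound for about 14 hours before viability readout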
[9] = viability of PTEN-deleted HCT116 cells – cell-based, HCT116 PTEN knockout, dose response (AID 1047); format: functional;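 further: HCT116 colon tumor cells with PTEN knocked out; cells exposed to compound for 60 hours before readout; potency for loss of cell viability measured by luminescence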
[10] = target: T1, Polyadenylate-binding protein 1 (Homo sapiens, UniProt P11940); test: MLLE binding blockers, Cy5 peptide tracer – biochemical, fluorescence polarization, Cy5-PAM2 peptide, secondary, miRNA deadenylation inhibitor project, dose response (AID 602260); format: functional; details: read-out: IC50_Mean
[11] = target: T1, Polyadenylate-binding protein 1; test: MLLE domain peptide-binding blockers, IC50 – biochemical, fluorescence polarization, FITC-PAM2 peptide, dose response (AID 602259); format: functional; details: read-out: IC50_Mean
[12] = target: Botulinum neurotoxin type F (Clostridium botulinum, UniProt P30996); test: High-throughput multiplex microsphere dose response for inhibitors of toxin protease, specifically Botulinum neurotoxin light chain F protease, compounds from Cherry Pick 02.; format: functional; details: read-out: EC50_MICROM
[13] = target: Luciferin 4-monooxygenase (Photinus pyralis, UniProt P08659); test: inhibition of purified Photinus pyralis luciferase – biochemical, luminescence, dose response (AID 1891)
[14] = Luminescence Cell-Based Dose Confirmation HTS to Identify Inhibitors of Platelet Dense Granule Release. [Related pubchem assays: 1663 (Primary HTS), 1678 (Summary of Project)]; format: functional
[15] = target: Steroidogenic factor 1 (Homo sapiens, UniProt Q13285); test: Counterscreen for inverse agonists of the liver receptor homolog-1 (LRH-1; NR5A2): Luminescence-based cell-based high throughput dose response assay to identify inverse agonists of the Steroidogenic Factor 1 Nuclear Receptor (SF1; NR5A1).; format: functional
[16] = nonselective StAR promoter luciferase inhibitors – cell-based, luminescence, luciferase reporter, counter-screen for LRH-1 inverse agonist project, dose response (AID 651969); format: functional
[17] = target: Nuclear receptor subfamily 5 group A member 2 (Homo sapiens, UniProt O00482); format: functional, cell-based;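 further: HEK293T cells transfected with LRH-1 and a StAR promoter luciferase reporter; potency for inhibitors that lower LRH-1 driven reporter light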
[18] = target: Nonstructural protein 1 (Influenza A virus, UniProt Q194T2); format: functional, Influenza A virus (A/California/07/2009(H1N1))
[19] = target: T2, Sentrin-specific protease 7 (Homo sapiens, UniProt Q9BQF6); test: inhibition of human SENP7 cleavage activity – biochemical, luminescence, SAR follow-up (AID 504497); format: functional
T2 sequence (Q9BQF6 whole entry): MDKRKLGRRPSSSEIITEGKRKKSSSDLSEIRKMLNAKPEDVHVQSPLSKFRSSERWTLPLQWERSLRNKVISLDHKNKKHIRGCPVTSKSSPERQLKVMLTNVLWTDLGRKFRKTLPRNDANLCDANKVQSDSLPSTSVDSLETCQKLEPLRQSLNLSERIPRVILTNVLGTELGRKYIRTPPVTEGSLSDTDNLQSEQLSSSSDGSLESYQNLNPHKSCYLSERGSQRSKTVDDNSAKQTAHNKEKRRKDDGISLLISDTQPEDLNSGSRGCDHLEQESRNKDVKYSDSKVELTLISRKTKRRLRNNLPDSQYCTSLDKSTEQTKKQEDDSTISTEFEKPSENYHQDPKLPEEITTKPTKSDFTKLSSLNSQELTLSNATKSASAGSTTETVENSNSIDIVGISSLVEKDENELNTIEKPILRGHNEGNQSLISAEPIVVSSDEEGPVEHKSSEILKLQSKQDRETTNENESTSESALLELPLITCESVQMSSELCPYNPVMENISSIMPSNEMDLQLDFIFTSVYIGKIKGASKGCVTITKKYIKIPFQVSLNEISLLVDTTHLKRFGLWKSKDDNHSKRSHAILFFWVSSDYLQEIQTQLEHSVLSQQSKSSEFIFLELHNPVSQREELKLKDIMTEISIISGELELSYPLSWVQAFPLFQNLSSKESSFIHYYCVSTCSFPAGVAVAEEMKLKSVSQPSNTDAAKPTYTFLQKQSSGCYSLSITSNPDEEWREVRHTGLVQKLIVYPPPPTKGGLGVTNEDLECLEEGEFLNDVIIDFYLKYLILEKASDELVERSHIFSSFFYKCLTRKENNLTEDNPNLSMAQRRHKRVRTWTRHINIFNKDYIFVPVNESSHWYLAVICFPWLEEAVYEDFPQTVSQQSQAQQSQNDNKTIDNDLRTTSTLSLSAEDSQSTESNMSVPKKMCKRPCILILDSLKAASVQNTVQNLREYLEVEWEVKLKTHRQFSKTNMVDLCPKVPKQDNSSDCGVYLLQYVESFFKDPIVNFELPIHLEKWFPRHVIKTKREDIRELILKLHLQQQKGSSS

[20] = target: T3, Sentrin-specific protease 8 (Homo sapiens, UniProt Q96LD8); test: inhibition of human SENP8 cleavage activity – biochemical, luminescence, SAR follow-up (AID 504501); format: functional
T3 sequence (Q96LD8 whole entry): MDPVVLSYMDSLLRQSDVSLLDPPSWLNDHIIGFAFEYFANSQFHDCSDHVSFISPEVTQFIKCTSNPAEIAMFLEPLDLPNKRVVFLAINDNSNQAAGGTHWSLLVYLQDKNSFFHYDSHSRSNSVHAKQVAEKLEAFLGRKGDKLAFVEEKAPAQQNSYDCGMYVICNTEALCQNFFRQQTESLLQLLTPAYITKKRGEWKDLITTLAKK

[21] = target: T4, Sentrin-specific protease 6 (Homo sapiens, UniProt Q9GZR1); format: functional
T4 sequence (Q9GZR1 whole entry): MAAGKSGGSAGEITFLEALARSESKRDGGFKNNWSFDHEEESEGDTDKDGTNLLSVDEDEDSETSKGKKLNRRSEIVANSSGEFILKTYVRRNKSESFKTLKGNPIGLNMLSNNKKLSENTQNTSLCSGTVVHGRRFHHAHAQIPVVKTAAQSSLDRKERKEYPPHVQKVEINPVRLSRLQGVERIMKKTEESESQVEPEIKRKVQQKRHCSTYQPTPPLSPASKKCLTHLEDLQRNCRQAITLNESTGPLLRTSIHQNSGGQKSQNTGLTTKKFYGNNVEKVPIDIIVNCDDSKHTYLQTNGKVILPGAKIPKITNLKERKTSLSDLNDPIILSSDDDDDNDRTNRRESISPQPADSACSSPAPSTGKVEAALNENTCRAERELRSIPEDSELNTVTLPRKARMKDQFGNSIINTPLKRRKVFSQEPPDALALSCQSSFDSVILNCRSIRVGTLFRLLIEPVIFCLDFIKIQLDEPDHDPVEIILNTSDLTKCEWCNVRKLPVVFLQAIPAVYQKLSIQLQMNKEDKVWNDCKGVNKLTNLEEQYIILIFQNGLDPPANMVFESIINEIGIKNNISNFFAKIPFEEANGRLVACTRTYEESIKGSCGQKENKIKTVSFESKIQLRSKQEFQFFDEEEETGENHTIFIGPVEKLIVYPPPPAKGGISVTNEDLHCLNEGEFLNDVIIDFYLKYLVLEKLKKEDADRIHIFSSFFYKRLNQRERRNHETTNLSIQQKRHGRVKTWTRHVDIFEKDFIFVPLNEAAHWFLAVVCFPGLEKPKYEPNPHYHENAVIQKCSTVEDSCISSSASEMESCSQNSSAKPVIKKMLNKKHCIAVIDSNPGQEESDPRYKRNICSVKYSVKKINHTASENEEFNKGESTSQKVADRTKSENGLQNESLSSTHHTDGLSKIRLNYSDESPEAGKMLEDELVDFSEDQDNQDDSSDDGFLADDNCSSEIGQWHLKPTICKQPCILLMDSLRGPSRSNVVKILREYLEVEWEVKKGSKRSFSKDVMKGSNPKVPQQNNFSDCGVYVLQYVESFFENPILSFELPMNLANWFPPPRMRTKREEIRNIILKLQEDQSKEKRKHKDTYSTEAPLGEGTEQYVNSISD

[22] = target: T4, Sentrin-specific protease 6; test: SAR Analysis of small molecule inhibitors of Sentrin-specific protease 6 (SENP6) using a Luminescent assay. [Related pubchem assays (depositor defined):AID2582, AID2599]; format: functional
[23] = target: T3, Sentrin-specific protease 8; format: functional
[24] = target: T5, Caspase-3 (Homo sapiens, UniProt P42574); test: SAR Analysis of small molecule inhibitors of Sentrin-specific proteases (SENPs) using a Caspase-3 Selectivity assay. [Related pubchem assays (depositor defined):AID2540, AID2599, AID434973, AID489001]; format: functional
T5 sequence (P42574 whole entry): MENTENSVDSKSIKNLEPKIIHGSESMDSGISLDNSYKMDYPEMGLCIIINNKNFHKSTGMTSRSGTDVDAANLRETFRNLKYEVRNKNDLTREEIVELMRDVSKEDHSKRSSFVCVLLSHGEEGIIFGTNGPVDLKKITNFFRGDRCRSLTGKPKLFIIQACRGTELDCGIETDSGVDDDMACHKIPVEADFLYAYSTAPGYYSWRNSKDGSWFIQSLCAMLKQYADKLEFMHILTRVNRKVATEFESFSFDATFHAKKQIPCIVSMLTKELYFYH

[25] = target: T5, Caspase-3; format: functional
[26] = target: T2, Sentrin-specific protease 7; format: functional

Chain of Botulinum neurotoxin type F (P30996 1-436 limits assumed): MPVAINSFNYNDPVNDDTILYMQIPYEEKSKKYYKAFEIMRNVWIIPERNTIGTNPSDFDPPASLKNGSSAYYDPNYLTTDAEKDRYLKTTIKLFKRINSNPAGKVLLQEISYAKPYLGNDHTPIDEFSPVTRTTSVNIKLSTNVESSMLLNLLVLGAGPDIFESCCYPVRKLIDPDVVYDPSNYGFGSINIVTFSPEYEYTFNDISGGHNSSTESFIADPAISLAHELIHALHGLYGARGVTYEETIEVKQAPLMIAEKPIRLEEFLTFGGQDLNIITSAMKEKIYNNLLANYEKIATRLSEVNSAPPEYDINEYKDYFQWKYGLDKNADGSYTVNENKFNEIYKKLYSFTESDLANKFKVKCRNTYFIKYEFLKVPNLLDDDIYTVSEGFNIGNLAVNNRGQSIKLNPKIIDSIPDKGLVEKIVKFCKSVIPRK
T1 sequence (P11940 whole entry, the tested form may be a part): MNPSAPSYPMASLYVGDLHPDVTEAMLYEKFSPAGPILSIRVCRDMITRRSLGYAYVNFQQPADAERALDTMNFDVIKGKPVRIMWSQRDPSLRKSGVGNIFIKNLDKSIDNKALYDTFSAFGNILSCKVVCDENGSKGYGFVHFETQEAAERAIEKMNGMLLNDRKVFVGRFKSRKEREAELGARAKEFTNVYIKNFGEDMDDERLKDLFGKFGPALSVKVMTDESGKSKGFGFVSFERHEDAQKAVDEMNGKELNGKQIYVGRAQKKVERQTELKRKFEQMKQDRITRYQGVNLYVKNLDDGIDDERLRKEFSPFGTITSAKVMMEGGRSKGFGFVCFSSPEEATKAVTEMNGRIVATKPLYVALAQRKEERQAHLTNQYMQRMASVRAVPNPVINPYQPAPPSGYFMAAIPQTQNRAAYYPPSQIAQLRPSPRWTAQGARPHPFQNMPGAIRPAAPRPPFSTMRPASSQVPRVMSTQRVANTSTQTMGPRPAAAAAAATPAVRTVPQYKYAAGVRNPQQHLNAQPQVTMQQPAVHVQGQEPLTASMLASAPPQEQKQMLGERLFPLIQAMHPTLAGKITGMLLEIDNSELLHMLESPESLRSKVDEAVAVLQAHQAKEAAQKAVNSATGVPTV
Chain of 5-hydroxytryptamine receptor 2A (P35363 whole entry): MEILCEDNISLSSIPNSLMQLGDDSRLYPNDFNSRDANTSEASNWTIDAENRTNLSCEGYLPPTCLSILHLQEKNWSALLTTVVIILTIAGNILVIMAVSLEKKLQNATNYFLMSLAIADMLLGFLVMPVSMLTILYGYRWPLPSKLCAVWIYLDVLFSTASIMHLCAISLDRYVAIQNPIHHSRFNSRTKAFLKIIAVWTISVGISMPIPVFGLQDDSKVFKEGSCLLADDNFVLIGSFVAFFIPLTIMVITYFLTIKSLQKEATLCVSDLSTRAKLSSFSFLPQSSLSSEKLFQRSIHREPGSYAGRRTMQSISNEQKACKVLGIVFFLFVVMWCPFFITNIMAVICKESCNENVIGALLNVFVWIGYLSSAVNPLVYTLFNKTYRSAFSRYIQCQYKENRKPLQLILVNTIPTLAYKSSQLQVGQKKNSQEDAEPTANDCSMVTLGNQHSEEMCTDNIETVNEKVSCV
Chain of 26S proteasome non-ATPase regulatory subunit 14 (O00487 whole entry, the tested form may be a part): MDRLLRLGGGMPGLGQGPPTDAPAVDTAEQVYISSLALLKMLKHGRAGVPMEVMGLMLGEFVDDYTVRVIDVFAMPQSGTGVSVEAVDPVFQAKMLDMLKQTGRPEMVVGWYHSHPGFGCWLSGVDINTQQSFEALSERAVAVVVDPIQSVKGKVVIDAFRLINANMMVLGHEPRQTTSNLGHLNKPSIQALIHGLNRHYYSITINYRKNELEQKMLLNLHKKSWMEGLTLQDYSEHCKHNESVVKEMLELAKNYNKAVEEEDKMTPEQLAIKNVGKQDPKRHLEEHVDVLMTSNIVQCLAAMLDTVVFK
Chain of Mu-type opioid receptor (P35372 whole entry): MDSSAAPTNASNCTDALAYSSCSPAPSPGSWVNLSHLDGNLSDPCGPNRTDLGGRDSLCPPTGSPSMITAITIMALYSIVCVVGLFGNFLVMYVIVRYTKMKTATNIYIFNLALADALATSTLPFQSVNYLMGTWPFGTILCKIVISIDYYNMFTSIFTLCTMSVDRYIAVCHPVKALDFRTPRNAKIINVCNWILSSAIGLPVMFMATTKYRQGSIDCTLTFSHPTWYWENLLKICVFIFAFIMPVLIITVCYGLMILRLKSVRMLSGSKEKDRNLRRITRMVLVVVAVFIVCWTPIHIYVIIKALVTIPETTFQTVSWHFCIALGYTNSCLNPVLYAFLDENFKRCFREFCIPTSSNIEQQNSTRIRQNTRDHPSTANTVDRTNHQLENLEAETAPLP
Chain of Steroidogenic factor 1 (Q13285 whole entry): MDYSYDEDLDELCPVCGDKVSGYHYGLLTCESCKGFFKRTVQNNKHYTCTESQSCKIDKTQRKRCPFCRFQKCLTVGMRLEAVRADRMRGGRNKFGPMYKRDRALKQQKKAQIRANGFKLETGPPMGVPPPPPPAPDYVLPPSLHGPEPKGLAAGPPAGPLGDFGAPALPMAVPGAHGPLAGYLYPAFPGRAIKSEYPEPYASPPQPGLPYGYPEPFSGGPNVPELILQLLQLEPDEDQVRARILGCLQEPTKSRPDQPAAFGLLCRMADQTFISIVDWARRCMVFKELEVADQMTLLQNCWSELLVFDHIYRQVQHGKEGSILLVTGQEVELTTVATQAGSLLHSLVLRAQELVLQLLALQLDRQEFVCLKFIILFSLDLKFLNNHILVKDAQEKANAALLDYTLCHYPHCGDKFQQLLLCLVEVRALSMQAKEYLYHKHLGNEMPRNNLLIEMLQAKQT
Chain of Nuclear receptor subfamily 5 group A member 2 (O00482 whole entry): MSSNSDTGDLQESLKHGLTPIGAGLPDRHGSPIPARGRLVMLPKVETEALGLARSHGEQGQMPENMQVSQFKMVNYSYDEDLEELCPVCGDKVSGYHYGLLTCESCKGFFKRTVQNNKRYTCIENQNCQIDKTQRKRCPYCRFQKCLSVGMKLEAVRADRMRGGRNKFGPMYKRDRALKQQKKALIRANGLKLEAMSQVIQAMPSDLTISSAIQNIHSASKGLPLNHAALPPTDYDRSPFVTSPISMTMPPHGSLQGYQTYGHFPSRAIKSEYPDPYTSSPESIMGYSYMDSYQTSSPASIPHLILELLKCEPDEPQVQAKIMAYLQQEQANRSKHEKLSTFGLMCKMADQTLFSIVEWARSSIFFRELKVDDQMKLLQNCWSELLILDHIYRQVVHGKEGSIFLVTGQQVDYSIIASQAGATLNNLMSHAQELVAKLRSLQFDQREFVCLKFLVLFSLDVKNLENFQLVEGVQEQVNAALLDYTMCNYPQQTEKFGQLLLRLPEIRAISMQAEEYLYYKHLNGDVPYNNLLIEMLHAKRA
Chain of 72 kDa type IV collagenase (P08253 whole entry): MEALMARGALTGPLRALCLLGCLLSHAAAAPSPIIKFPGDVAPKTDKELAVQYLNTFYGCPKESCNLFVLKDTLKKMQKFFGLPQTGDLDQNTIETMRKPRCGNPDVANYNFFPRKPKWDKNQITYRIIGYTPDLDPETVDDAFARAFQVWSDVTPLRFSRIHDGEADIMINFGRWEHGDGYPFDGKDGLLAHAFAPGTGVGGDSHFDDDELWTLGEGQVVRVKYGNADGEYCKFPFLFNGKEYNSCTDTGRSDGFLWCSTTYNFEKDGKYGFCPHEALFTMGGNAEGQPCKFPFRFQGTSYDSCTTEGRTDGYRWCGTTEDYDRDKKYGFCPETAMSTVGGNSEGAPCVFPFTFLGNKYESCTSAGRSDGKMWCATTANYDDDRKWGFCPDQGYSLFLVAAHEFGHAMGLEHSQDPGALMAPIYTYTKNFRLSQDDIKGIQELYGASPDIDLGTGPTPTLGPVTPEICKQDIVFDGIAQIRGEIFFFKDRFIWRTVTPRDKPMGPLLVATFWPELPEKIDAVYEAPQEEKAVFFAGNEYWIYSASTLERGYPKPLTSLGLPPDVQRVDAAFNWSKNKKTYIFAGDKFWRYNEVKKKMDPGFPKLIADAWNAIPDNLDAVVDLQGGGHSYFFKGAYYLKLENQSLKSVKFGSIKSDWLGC
Chain of Hepatocyte nuclear factor 4-alpha (P41235 whole entry, the tested form may be a part): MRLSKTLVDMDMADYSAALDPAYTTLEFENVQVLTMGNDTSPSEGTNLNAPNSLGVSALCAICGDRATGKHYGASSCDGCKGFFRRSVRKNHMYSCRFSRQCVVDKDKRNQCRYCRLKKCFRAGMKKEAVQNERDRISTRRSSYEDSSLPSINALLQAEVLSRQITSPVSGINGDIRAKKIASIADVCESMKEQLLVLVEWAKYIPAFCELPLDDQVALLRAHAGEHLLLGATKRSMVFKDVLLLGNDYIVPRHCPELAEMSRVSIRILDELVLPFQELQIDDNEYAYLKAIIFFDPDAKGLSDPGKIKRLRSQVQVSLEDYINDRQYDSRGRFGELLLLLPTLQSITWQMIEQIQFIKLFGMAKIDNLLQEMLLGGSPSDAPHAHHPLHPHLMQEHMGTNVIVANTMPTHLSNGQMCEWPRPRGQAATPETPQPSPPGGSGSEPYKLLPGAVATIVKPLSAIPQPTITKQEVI
Chain of Nonstructural protein 1 (Q194T2 whole entry): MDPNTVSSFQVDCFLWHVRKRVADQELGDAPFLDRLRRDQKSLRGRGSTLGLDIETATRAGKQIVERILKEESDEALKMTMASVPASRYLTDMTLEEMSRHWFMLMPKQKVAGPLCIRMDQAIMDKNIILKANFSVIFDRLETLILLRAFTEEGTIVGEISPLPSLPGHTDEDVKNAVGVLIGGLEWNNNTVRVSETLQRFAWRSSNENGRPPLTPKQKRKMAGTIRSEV

SMILES: c1ccc(N2CCN(Cc3ccsc3)CC2)nc1
- EC50 [1]: 92.4 µM (inactive)
- EC50 [2]: 0.125 µM (active)

SMILES: CC(/C=C1\SC(=S)N(CCC(=O)Nc2cccc(C(=O)O)c2)C1=O)=C\c1ccccc1
- IC50 [3]: 64.9 µM (active)
- IC50 [4]: 73.5 µM (active)
- IC50 [5]: 47.4 µM (active)

SMILES: CC1=CC(C)(C)Nc2ccc(OC(=O)C(C)N3C(=O)c4ccccc4C3=O)cc21 (centres undefined)
- IC50 [6]: 11.1 µM (inactive)
- EC50 [7]: 7.55 µM (active)
- IC50 [8]: > 80 µM (inactive)
- EC50 [9]: 8.18 µM (active)

SMILES: Cc1cc2cc(CNC(=O)c3cccc([N+](=O)[O-])c3)ccc2[nH]1
- IC50 [10]: > 66 µM (inactive)
- IC50 [11]: > 66 µM (inactive)
- EC50 [12]: > 20 µM (inactive)

SMILES: COc1ccc(C2(C)NC(=O)N(CC(=O)NCCC3=CCCCC3)C2=O)cc1OC (centres undefined)
- EC50 [13]: > 112 µM (not active)
- EC50 [14]: > 112 µM (not active)
- IC50 [15]: 5.24 µM (active)
- IC50 [16]: 35.9 µM (inactive)
- IC50 [17]: 35.9 µM (inactive)

SMILES: CCOc1cc(CN2CCN(c3ncccn3)CC2)ccc1OC
- EC50 [1]: 92.5 µM (inactive)
- EC50 [2]: 76.1 µM (inactive)

SMILES: CCCC(=O)NC(c1cccs1)c1cc([N+](=O)[O-])c2cccnc2c1O (centres undefined)
- IC50 [3]: 3.26 µM (active)
- IC50 [18]: 13.1 µM (active)
- IC50 [4]: 83.6 µM (active)
- IC50 [5]: 89.3 µM (active)

SMILES: O=C(Nc1nc2ccccc2s1)c1ccc(Cl)s1
- IC50 [19]: 1.35 µM (active)
- IC50 [20]: 2.55 µM (active)
- IC50 [21]: > 100 µM (inactive)
- IC50 [22]: 2.83 µM (active)
- IC50 [23]: 1.56 µM (active)
- IC50 [24]: 3.28 µM (active)
- IC50 [25]: 10.5 µM (active)
- IC50 [26]: 2.16 µM (active)

SMILES: CCCc1cc(=O)oc2cc(OCC(=O)NCCc3ccc(S(N)(=O)=O)cc3)ccc12
- IC50 [15]: 7.47 µM (active)
- IC50 [16]: 35.9 µM (inactive)
- IC50 [17]: 35.9 µM (inactive)

SMILES: COc1cc(OC)cc(C(=O)Nc2ccc3ccccc3c2)c1
- IC50 [19]: 2.86 µM (active)
- IC50 [20]: 7.8 µM (active)
- IC50 [22]: 7 µM (active)
- IC50 [24]: 8.7 µM (active)

SMILES: COc1ccccc1C(CNC(=O)c1ccc(C)c(S(=O)(=O)N2CCCCC2)c1)N1CCCC1 (centres undefined)
- EC50 [12]: > 20 µM (inactive)

SMILES: COc1cc(OC)cc(-c2noc(/C=C/c3ccccc3)n2)c1
- IC50 [19]: 21.4 µM (active)
- IC50 [20]: > 99 µM (inactive)
- IC50 [22]: > 99 µM (inactive)
- IC50 [24]: 59 µM (active)

SMILES: O=C(NC1CCCCC1)C(C1CC1)n1c(=O)c(-c2ccco2)nc2ccccc21 (centres undefined)
- IC50 [6]: 2.17 µM (active)

— ChEMBL document CHEMBL1201862, “PubChem BioAssay data set” (2004)
